Measurements reported in patent US10526325B2, “Bicyclic heterocyclic derivatives” (Merck Patent GmbH, priority 2015, dated 2020).

Key:
human PDHK2 (12-407) = human PDHK2 (12-407) (Homo sapiens (Human), UniProt Q15119); test: Isothermal titration calorimetry (ITC) binding; conditions: ITC at 30° C., pH 7.5
In short: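 Tag-free human PDHK2 (12-407) from E. coli, 50 μM, titrated into 5 μM compound at 30° C in 20 mM HEPES, 135 mM KCl, 1 mM TCEP, 2 mM MgCl2, 15 mM NaH2PO4, pH 7.5, ≤1% DMSO. One-site fit gave KA, ΔH^obs and N after dilution-heat correction. Protein and compound concentrations were normalised to 1:1 stoichiometry against a standard inhibitor.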

[1] = test system: PDH-E1alpha (pSer300) in HEK293T cells; test: Cellular immunofluorescence assay, PDH-E1alpha (pSer300) in HEK293T cells; assay type: cell-based, human; conditions: Homo sapiens, HEK-293T, 5 hours incubation, anti-PDH-E1alpha (pSer300) immunofluorescence, read-out: IC50 (cell data)
In short: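 Human HEK293T cells exposed to compound for 5 h, then fixed, permeabilised and immunostained for phospho-Ser300 PDH-E1α with Alexa 488 secondary and Hoechst counterstain. Fluorescence read by laser scanning cytometry. Data normalized to a pharmacological inhibitor control for dose-response curves.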

PDHK2 = PDHK2 (Homo sapiens (Human), UniProt Q15119); test: Biochemical activity testing of PDHK2: PDC inactivation assay; conditions: human rec PDHK2, porcine heart PDC, 5 μM ATP, read-out: IC50 PDHK2 (enzyme assay)
In short: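 Recombinant human PDHK2 (137 nM final) and porcine heart PDC (20 mU/ml) preincubated with compound 30 min at RT in pH 7.0 phosphate kinase buffer, then 5 μM ATP 30 min at 37° C. PDC activity read as NADH fluorescence increase (Ex 340/Em 450 nm) over 45 min with pyruvate, NAD and CoA; 3 mM DCA defined zero; IC50 determined.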

Row | Kd (human PDHK2 (12-407)) [nM] | IC50 (PDHK2) [nM] | SMILES | IC50 [1] [nM]
1 | < 300 | 300 to 3000 | C[C@@](O)(C(=O)N1CCc2c(nnn2-c2ccccc2)C1)C(F)(F)F [Compound A46, (R)-3,3,3-Trifluoro-2-hydroxy-2-methyl-1-(1-phenyl-1,4,6,7-tetrahydro-[1,2,3]triazolo[4,5-c]pyridin-5-yl)-propan-1-one] | 3000 to 50000
2 | < 300 | 300 to 3000 | C[C@@](O)(C(=O)N1CCc2c(nnn2-c2ccc(F)cc2)C1)C(F)(F)F [Compound A47, (R)-3,3,3-Trifluoro-1-[1-(4-fluoro-phenyl)-1,4,6,7-tetrahydro-[1,2,3]triazolo[4,5-c]pyridin-5-yl]-2-hydroxy-2-methyl-propan-1-one] | 3000 to 50000
3 | < 300 | 300 to 3000 | C[C@@](O)(C(=O)N1CCn2c(-c3ccccc3)cnc2C1)C(F)(F)F [Compound A49, (R)-3,3,3-Trifluoro-2-hydroxy-2-methyl-1-(3-phenyl-5,6-dihydro-8H-imidazo[1,2-a]pyrazin-7-yl)-propan-1-one] | 3000 to 50000
4 | < 300 | 300 to 3000 | C[C@@](O)(C(=O)N1CCn2c(cnc2-c2ccccc2)C1)C(F)(F)F [Compound A50, (R)-3,3,3-Trifluoro-2-hydroxy-2-methyl-1-(3-phenyl-5,6-dihydro-8H-imidazo-[1,5-a]pyrazin-7-yl)-propan-1-one] | 3000 to 50000
5 | < 300 | 300 to 3000 | C[C@@](O)(C(=O)N1CCn2c(cnc2-c2ccc(F)cc2)C1)C(F)(F)F [Compound A51, (R)-3,3,3-Trifluoro-1-[3-(4-fluoro-phenyl)-5,6-dihydro-8H-imidazo[1,5-a]pyrazin-7-yl]-2-hydroxy-2-methyl-propan-1-one] | 3000 to 50000
6 | < 300 | < 300 | C[C@@H]1CN(C(=O)[C@@](C)(O)C(F)(F)F)Cc2cnc(-c3ccc(F)cc3)n21 [Compound A52, (R)-3,3,3-Trifluoro-1-[(R)-3-(4-fluoro-phenyl)-5-methyl-5,6-dihydro-8H-imidazo[1,5-a]pyrazin-7-yl]-2-hydroxy-2-methyl-propan-1-one] | < 300
7 | < 300 | < 300 | C[C@@H]1CN(C(=O)[C@@](C)(O)C(F)(F)F)Cc2cnc(-c3ccc(F)cc3F)n21 [Compound A54, (R)-1-[(R)-3-(2,4-Difluoro-phenyl)-5-methyl-5,6-dihydro-8H-imidazo[1,5-a]pyrazin-7-yl]-3,3,3-trifluoro-2-hydroxy-2-methyl-propan-1-one] | < 300
8 | < 300 | 300 to 3000 | C[C@@H]1CN(C(=O)[C@@](C)(O)C(F)(F)F)Cc2cnc(-c3ncc(F)cc3F)n21 [Compound A57, (R)-1-[(R)-3-(3,5-Difluoro-pyridin-2-yl)-5-methyl-5,6-dihydro-8H-imidazo[1,5-a]pyrazin-7-yl]-3,3,3-trifluoro-2-hydroxy-2-methyl-propan-1-one] | < 300
